# Test results taken from patent US9221746B2, “Homo- and hetero-polyamino-acid derivatives of fullerene C60, method for producing same, and pharmaceutical compositions based on said derivatives” (priority 2011, dated 2015).
# Test system: A/IIV-Moscow/01/2009 (H1N1)swl influenza virus
# Assay: Reduction of influenza virus reproduction in MDCK cell culture (ELISA)
# Type: cell-based
# Conditions: for Percent reduction of influenza virus reproduction in MDCK cell culture relative to control, average values: average of the three experiments
# Procedure: The agent was diluted with DMSO (5 mg substance+0.5 mL DMSO), followed by addition of 4.5 mL MEM cell cultural medium to obtain in this way a stock solution with a concentration of 1.0 […].
# The antiviral activity was ascertained from the reduction of influenza virus reproduction in the MDCK cell culture, as recognized by ELISA.
# For this purpose, MDCK cells were grown on 96-well plates to obtain a complete monolayer, washed from the growth medium, and added with substances in a twofold concentration in 100 mcL MEM medium. Infection with the virus in a working dose ranging from 100 to 1000 TCD50 was carried out in two protocols: 2 hours following the insertion of the substances and simultaneously. The plates were incubated in a thermostat filled with CO2 for 24 hours at 37° C. Following the incubation, the medium was removed and cells were fixed by 80% acetone in PBS for 15 minutes and then well dried, and ELISA was performed by consecutive adsorption of specific reagents, namely, monoclonal antibodies, conjugate, and substrate (orthophenylenediamine). The degree of reaction was monitored by measuring optical density at 492 nm on a Biokom spectrophotometer. Each virus dilution was studied in three replicas, for which an average optical density (OD) value was calculated. Percent inhibition was determined as the quotient of the difference between the experimental OD and the OD of the cell control, divided by the difference between the OD of the virus control and the OD of the cell control, multiplied by 100%. The data gained in this way were used to determine the minimal concentration of the agent causing the 50.0% inhibition of viral reproduction (MIC50).
# The inhibition of A(H1N1) influenza virus replication was ascertained in three experiments with different multiplicities of infection.
substance,measurement,setting,value
Fullerene Poly(Aminocaproic Acid) of Formula C60(H3){NH(CH2)5COO—}3{NH3^+(CH2)5COOH}3 [Agent No. 1],Percent (%) reduction of influenza virus reproduction in MDCK cell culture relative to control,"6.25 mcg/mL, 2 h prior to infection, 1st value of cell (experiments with different multiplicities of infection)",27.0%
same,Percent (%) reduction of influenza virus reproduction in MDCK cell culture relative to control,"6.25 mcg/mL, 2 h prior to infection, 2nd value of cell",28.0%
same,Percent (%) reduction of influenza virus reproduction in MDCK cell culture relative to control,"6.25 mcg/mL, 2 h prior to infection, 3rd value of cell",0%
same,"Percent reduction of influenza virus reproduction in MDCK cell culture relative to control, average values","6.25 mcg/mL, 2 h prior to infection",18.0%
same,Percent (%) reduction of influenza virus reproduction in MDCK cell culture relative to control,"6.25 mcg/mL, simultaneously with infection, 1st value of cell",18.0%
same,Percent (%) reduction of influenza virus reproduction in MDCK cell culture relative to control,"6.25 mcg/mL, simultaneously with infection, 2nd value of cell",0%
same,Percent (%) reduction of influenza virus reproduction in MDCK cell culture relative to control,"6.25 mcg/mL, simultaneously with infection, 3rd value of cell",0%
same,"Percent reduction of influenza virus reproduction in MDCK cell culture relative to control, average values","6.25 mcg/mL, simultaneously with infection",6.0%
same,Percent (%) reduction of influenza virus reproduction in MDCK cell culture relative to control,"12.5 mcg/mL, 2 h prior to infection, 1st value of cell",47.0%
same,Percent (%) reduction of influenza virus reproduction in MDCK cell culture relative to control,"12.5 mcg/mL, 2 h prior to infection, 2nd value of cell",74.0%
same,Percent (%) reduction of influenza virus reproduction in MDCK cell culture relative to control,"12.5 mcg/mL, 2 h prior to infection, 3rd value of cell",9.5%
same,"Percent reduction of influenza virus reproduction in MDCK cell culture relative to control, average values","12.5 mcg/mL, 2 h prior to infection",44.0%
same,Percent (%) reduction of influenza virus reproduction in MDCK cell culture relative to control,"12.5 mcg/mL, simultaneously with infection, 1st value of cell",39.0%
same,Percent (%) reduction of influenza virus reproduction in MDCK cell culture relative to control,"12.5 mcg/mL, simultaneously with infection, 2nd value of cell",13.0%
same,Percent (%) reduction of influenza virus reproduction in MDCK cell culture relative to control,"12.5 mcg/mL, simultaneously with infection, 3rd value of cell",0%
same,"Percent reduction of influenza virus reproduction in MDCK cell culture relative to control, average values","12.5 mcg/mL, simultaneously with infection",26%
same,Percent (%) reduction of influenza virus reproduction in MDCK cell culture relative to control,"25.0 mcg/mL, 2 h prior to infection, 1st value of cell",41.0%
same,Percent (%) reduction of influenza virus reproduction in MDCK cell culture relative to control,"25.0 mcg/mL, 2 h prior to infection, 2nd value of cell",79.0%
same,Percent (%) reduction of influenza virus reproduction in MDCK cell culture relative to control,"25.0 mcg/mL, 2 h prior to infection, 3rd value of cell",12%
same,"Percent reduction of influenza virus reproduction in MDCK cell culture relative to control, average values","25.0 mcg/mL, 2 h prior to infection",44.0%
same,Percent (%) reduction of influenza virus reproduction in MDCK cell culture relative to control,"25.0 mcg/mL, simultaneously with infection, 1st value of cell",40.0%
same,Percent (%) reduction of influenza virus reproduction in MDCK cell culture relative to control,"25.0 mcg/mL, simultaneously with infection, 2nd value of cell",0%
same,"Percent reduction of influenza virus reproduction in MDCK cell culture relative to control, average values","25.0 mcg/mL, simultaneously with infection",20.0%
same,Percent (%) reduction of influenza virus reproduction in MDCK cell culture relative to control,"50.0 mcg/mL, 2 h prior to infection, 1st value of cell",28.0%
same,Percent (%) reduction of influenza virus reproduction in MDCK cell culture relative to control,"50.0 mcg/mL, 2 h prior to infection, 2nd value of cell",72.0%
same,Percent (%) reduction of influenza virus reproduction in MDCK cell culture relative to control,"50.0 mcg/mL, 2 h prior to infection, 3rd value of cell",31.0%
same,"Percent reduction of influenza virus reproduction in MDCK cell culture relative to control, average values","50.0 mcg/mL, 2 h prior to infection",44.0%
same,Percent (%) reduction of influenza virus reproduction in MDCK cell culture relative to control,"50.0 mcg/mL, simultaneously with infection, 1st value of cell",33.0%
same,Percent (%) reduction of influenza virus reproduction in MDCK cell culture relative to control,"50.0 mcg/mL, simultaneously with infection, 2nd value of cell",10.0%
same,"Percent reduction of influenza virus reproduction in MDCK cell culture relative to control, average values","50.0 mcg/mL, simultaneously with infection",22.0%
same,Percent (%) reduction of influenza virus reproduction in MDCK cell culture relative to control,"100.0 mcg/mL, 2 h prior to infection, 1st value of cell",4.0%
same,Percent (%) reduction of influenza virus reproduction in MDCK cell culture relative to control,"100.0 mcg/mL, 2 h prior to infection, 2nd value of cell",0%
same,Percent (%) reduction of influenza virus reproduction in MDCK cell culture relative to control,"100.0 mcg/mL, 2 h prior to infection, 3rd value of cell",20.0%
same,"Percent reduction of influenza virus reproduction in MDCK cell culture relative to control, average values","100.0 mcg/mL, 2 h prior to infection",8%
same,Percent (%) reduction of influenza virus reproduction in MDCK cell culture relative to control,"100.0 mcg/mL, simultaneously with infection, 1st value of cell",29.0%
same,Percent (%) reduction of influenza virus reproduction in MDCK cell culture relative to control,"100.0 mcg/mL, simultaneously with infection, 2nd value of cell",28.0%
same,"Percent reduction of influenza virus reproduction in MDCK cell culture relative to control, average values","100.0 mcg/mL, simultaneously with infection",29.0%
same,reproduction inhibitory activity in the MDCK cell culture,different dilutions of the agent,high reproduction inhibitory activity
